Test results from patent US20240002326A1, “COMPOUNDS AND USE THEREOF IN METHODS OF TREATMENT” (The University of Queensland, priority 2016, published 2024).
“Also recorded” adds a separate entry of the source.

How the values were obtained:
SOX18-RBPJ interaction = SOX18-RBPJ interaction (Homo sapiens (Human), UniProt P35713); experiment: ALPHAScreen SOX18-RBPJ protein-protein interaction; assay type: binding
From the text: Proteins were genetically encoded with enhanced GFP (GFP), mCherry and cMyc (myc) tags, and cloned into cell free expression Gateway destination vectors: N-terminal GFP tagged (pCellFree_G03), N-terminal Cherry-cMyc (pCellFree_G07) and C-terminal Cherry-cMyc tagged (pCellFree_G08) (Gagoski et al., 2015). Human RBPJ (BC020780) and MEF2C (BC026341) Open Reading Frames (ORFs) were sourced from the Human ORFeome collection, version 1.1 and 5.1, and the Human Orfeome collaboration OCAA collection (Open Biosystems), as previously described (Sierecki et al., 2013) and cloned at the ARVEC facility, UQ Diamantina Institute. The entry clones pDONOR223 or pENTR201 vectors were exchanged with the ccdB gene in the expression plasmid by LR recombination (Life Technologies, Australia). The full-length human SOX18 gene was synthesized and the transfer to vectors was realized using Gateway PCR cloning. Translation competent Leishmania tarentolae extract (LTE) was prepared as previously described (Kovtun et al., 2011, Mureev et al., 2009). Protein pairs were co-expressed by adding 30 nM of GFP template plasmid and 60 nM of Cherry template plasmid to LTE and incubating for 3 hours at 27° C.
ALPHAScreen was performed as previously described (Sierecki et al., 2014, Sierecki et al., 2013). […] Percentage of interaction was calculated as: (I_cpd/I_DMSO)×100 from 3 independent experiments.
ALPHAScreen was performed as previously described (Sierecki et al., 2014, Sierecki et al., 2013), using the cMyc detection kit and Proxiplate-384 Plus plates (PerkinElmer). The LTE lysate co-expressing the proteins of interest was diluted in buffer A (25 mM HEPES, 50 mM NaCl). For the assay, 12.5 μL (0.4 μg) of Anti-cMyc coated Acceptor Beads in buffer B (25 mM HEPES, 50 mM NaCl, 0.001% NP40, 0.001% casein) were aliquoted into each well. This was followed by the addition of 2 μL of diluted sample, at different concentration, and 2 μL of biotin labeled GFP-Nanotrap in buffer A. The plates were incubated for 45 min at room temperature, then adding 2 μL (0.4 μg) of streptavidin-coated Donor Beads diluted in buffer A, and incubation in the dark for 45 min at room temperature. The ALPHAScreen signal was measured on an Envision Plate Reader (PerkinElmer), using manufacturer's recommended settings (λexc=680/30 nm for 0.18 s, λem=570/100 nm after 37 ms). The resulting bell-shaped curve is an indication of a positive interaction, while a flat line reflects a lack of interaction between the proteins. The measurement of each protein pair was repeated in triplicate.
I is the highest signal level (top of the hook effect curve) and Ineg is the lowest (background) signal level. The signals were normalized to the Iref signal obtained for the strongest interaction. […] Percentage of interaction was calculated as: […]
The ALPHA-Screen Assay was performed as previously described (Sierecki et al. 2014), using the cMyc detection kit and Proxiplate-384 Plus plates (PerkinElmer). A serial dilution of each sample was measured. The LTE lysate co-expressing the proteins of interest was diluted in buffer A (25 mM HEPES, 50 mM NaCl). For the assay, 12.5 μL (0.4 μg) of Anti-cMyc coated Acceptor Beads in buffer B (25 mM HEPES, 50 mM NaCl, 0.001% NP40, casein) were aliquoted into each well. This was followed by the addition of 2 μL of diluted sample and 2 μL of biotin labeled GFP-Nanotrap in buffer A. The plate was incubated for 45 min at RT. Afterward, 2 μL (0.4 μg) of Streptavidin coated Donor Beads diluted in buffer A, were added, followed by incubation in the dark for 45 min at RT. The ALPHA-Screen signal was obtained on an Envision Multilabel Plate Reader (PerkinElmer), using the manufacturer's recommended settings (excitation: 680/30 nm for 0.18 s, emission: 570/100 nm after 37 ms). The resulting bell-shaped curve is an indication of a positive interaction, while a flat line reflects a lack of interaction between the proteins. […]

[1] = Cytotoxicity assay (Alamar blue), HepG2; assay type: cell-based; settings: human, HepG2 cells; HepG2, 24 h

Sequence of SOX18-RBPJ interaction (P35713 whole entry): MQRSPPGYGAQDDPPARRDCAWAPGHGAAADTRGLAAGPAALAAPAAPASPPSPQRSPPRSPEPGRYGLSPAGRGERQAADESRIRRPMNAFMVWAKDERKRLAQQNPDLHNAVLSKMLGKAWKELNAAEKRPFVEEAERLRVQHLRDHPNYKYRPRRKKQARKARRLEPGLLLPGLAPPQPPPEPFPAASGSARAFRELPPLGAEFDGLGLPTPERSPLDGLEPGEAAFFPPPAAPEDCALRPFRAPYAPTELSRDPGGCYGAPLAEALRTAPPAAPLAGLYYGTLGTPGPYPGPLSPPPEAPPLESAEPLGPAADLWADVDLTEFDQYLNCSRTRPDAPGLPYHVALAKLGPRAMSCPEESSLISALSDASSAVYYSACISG

SMILES | IC50 (SOX18-RBPJ interaction; ALPHAScreen, read-out: SOX18-RBPJ interaction disruption IC50) | SOX18-RBPJ protein-protein binding inhibition at 5 μM (SOX18-RBPJ interaction) | CC50 at 24 h [1]
O=C(O)c1ccccc1Nc1cccc(C(F)(F)F)c1 [Flufenamic acid, reference compound] | ~444 µM |  | 
CCN(CC)C(=O)c1c(O)cc(O)cc1CCc1ccc2ccccc2c1 [Sm26, N,N,diethyl-2,4-hydroxy-6-(2-(naphthalen-2-yl)ethyl)benzamide] |  | highly active; also recorded: moderately active | 
COc1cc(C)cc(/C=C/c2ccc3ccccc3c2)c1C(=O)O [Sm34, (E)-2-methoxy-4-methyl-6-(2-(naphthalen-2-yl)vinyl)benzoic acid] |  | highly active | > 100 µM
Oc1cc(CCc2ccccc2)cc(O)c1O [Sm40, 5-phenethylbenzene-1,2,3-triol] |  | highly active | > 100 µM
